Results as given in patent EP0499581B1, “Stabilized polymer composition” (Ciba Specialty Chemicals Holding Inc., priority 1991, dated 1992).

Experiments:
Type in all cases: physicochemical
[1] = Yellowing (ASTM D 1925) after UV exposure in Weather-Ometer WRC 600, ABS/SAN/polycarbonate blend (Example 2); settings: Weather-Ometer WRC 600, 2 mm plates
Method: (§1) Beispiel 2: Das ABS-Copolymer gemäss Beispiel 1 wird in Pulverform mit derselben Menge von Styrolacrylnitril-Copolymer (Suspension SAN, Kostil, Montedipe), mit gegebenenfalls weiteren Additiven, wie z.B. einem UV-Absorber (Tinuvin® 234, Ciba-Geigy AG) und einem Phosphit (Irgafos® 168, Ciba-Geigy AG), in einem Rhönrad vermischt. Die Mischung wird in einem Zweischnecken-Extruder (Temperatur-Zyklus : 210°C/ 210°C/ 215°C/ 220°C) verarbeitet und granuliert.
(§2) Das erhaltene ABS-Granulat wird mit derselben Menge von Polycarbonat-Granulat (PC Calibre®, Dow) vermischt. Das Polymerblend wird in einem Zweischnecken-Extruder (Temperatur Zyklus : 240°C/ 240°C/ 250°C) hergestellt.
Die erhaltenen Mischungen (Blends) werden in einer Heizpresse bei 200°C zu 2 mm starken Platten gepresst. Aus den Platten werden Prüfkörper von 40 x 40 x 2 mm ausgeschnitten. Diese Plättchen werden in einem Weather-Ometer® WRC 600 mit UV-Licht belichtet. In regelmässigen Abständen werden Proben entnommen und deren Vergilbung (oder Yellowness Index) gemäss Methode ASTM D 1925 gemessen.
Die mit der Belichtungszeit einhergehende Vergilbung is in der Tabelle 2 wiedergegeben.

[2] = Yellowing (ASTM D 1925) after oven ageing, ABS/PBT blend (Example 3)
Method: Beispiel 3: Das ABS-Copolymer Granulat gemäss Beispiel 2 wird mit derselben Menge Polybutylenterephtahlat, (PBT CRASTIN® S 600, Ciba-Geigy) vermischt. Das Polymerblend wird in einem Zweischnecken-Extruder (Temperatur-Zyklus: 210°C/230°C/ 235°C/ 240°C) hergestellt. Proben von 12,7 x 60,0 x 2,0 mm werden in einer Arburg-Spritzgussanlage gespritzt bei einer maximalen Verarbeitungstemperatur von 260°C. Diese Plättchen werden in einem Ofen bei 200°C und bei 160°C gealtert. In regelmässigen Abständen werden die Proben entnommen und deren Vergilbung gemäss ASTM D 1925 gemessen.

[3] = Impact bending strength (ASTM D 4508-85) after UV exposure in Xenotest 450, ABS/SAN/polycarbonate blend (Example 2); parameters: key to Schlagbiegefestigkeit in kJ/m^2 nach 200 Stunden in Xenotest 450: KB = Kein Bruch; settings: energy required to break
Method: as §1, §2
Weitere Prüfkörper von 12,7 x 60,0 x 2,0 mm werden in einem Xenotest 450 mit UV-Licht belichtet. In regelmässigen Abständern werden Proben entnommen und deren Schlagbiegefestigkeit gemäss Methode ASTM D 4508-85 gemessen. Dabei erfolgt der Pendelschlag auf die belichtete Seite der Probe.
In Tabelle 3 ist die für den Bruch der Probe erforderliche Energie angegeben. Je höher dieser Wert ist, desto höher ist die Schlagbiegefestigkeit der Probe. Bei ungeschädigten Proben erfolgt kein Bruch.

[4] = Yellowing (ASTM D 1925) after UV exposure in Weather-O-meter WRC 600, ABS/SAN/polycarbonate blend (Example 1); settings: Weather-O-meter WRC 600, 2 mm plates
Method: Dieses Copolymer wird in Pulverform mit derselben Menge von Styrolacrylnitril-copolymer (Suspension SAN, Ube Cycon) und der doppelten Menge von pulverförmigem Polycarbonat (PC 135, General Electric), mit gegebenenfalls weiteren Additiven, wie z.B. einem UV-Absorber, in einem Rhönrad vermischt. Die Mischung wird in einem Zweischnecken-Extruder (Temperatur-Zyklus: 165°C, 250°C, 275°C, 275°C, 270°C; Umdrehungen/Minute: 45) hergestellt.
Die erhaltenen Mischungen werden in einer Heizpresse bei 200°C zu 2 mm starken Platten gepresst. Aus den Platten werden Prüfkörper von 40 x 40 x 2 mm ausgeschnitten. Diese werden in einem Weather-O-meter® WRC 600 mit UV-Licht belichtet. In regelmässigen Abständen werden Proben entnommen und deren Vergilbung gemäss ASTM D 1925 gemessen.
Die mit der Belichtungszeit einhergehende Vergilbung, ausgedrückt in ΔYI (YI = Yellowness Index; ΔYI = Unterschied in YI-Wert zwischen unbelichteter und entsprechender belichteter Probe) und nach der angegebenen Methode ermittelt, ist in der Tabelle 1 wiedergegeben.

CC(C)(c1ccccc1)c1cc(-n2nc3ccccc3n2)c(O)c(C(C)(C)c2ccccc2)c1 [0,50 % TINUVIN® 234]
Δ YI nach Belichtungszeit von 500 h ([1]; 500 h UV): -7
Δ YI nach Belichtungszeit von 1000 h ([1]; 1000 h UV): 1,1
Δ (YI) nach Belichtungszeit von 2000 h ([1]; 2000 h UV): 16,1
Δ (YI) nach Belichtungszeit von 3000 h ([1]; 3000 h UV): 23,4
Δ (YI) nach Belichtungszeit von 4000 h ([1]; 4000 h UV): 23,9
Δ YI nach Ofenalterung bei 160°C nach 60 min ([2]; oven 160°C, 60 min): 4,7
Δ YI nach Ofenalterung bei 160°C nach 90 min ([2]; oven 160°C, 90 min): 10,8
Δ YI nach Ofenalterung bei 160°C nach 120 min ([2]; oven 160°C, 120 min): 11,6
Δ YI nach Ofenalterung bei 160°C nach 160 min ([2]; oven 160°C, 160 min): 20,4
Δ YI nach Ofenalterung bei 160°C nach 840 min ([2]; oven 160°C, 840 min): 56,3
Δ YI nach Ofenalterung bei 200°C nach 10 min ([2]; oven 200°C, 10 min): 6,0
Δ YI nach Ofenalterung bei 200°C nach 20 min ([2]; oven 200°C, 20 min): 16,4
Δ YI nach Ofenalterung bei 200°C nach 40 min ([2]; oven 200°C, 40 min): 33,1
Δ YI nach Ofenalterung bei 200°C nach 60 min ([2]; oven 200°C, 60 min): 43,9
Δ YI nach Ofenalterung bei 200°C nach 90 min ([2]; oven 200°C, 90 min): 55,3
Schlagbiegefestigkeit in kJ/m^2 nach 200 Stunden in Xenotest 450 ([3]; 200 h Xenotest 450): KB
Schlagbiegefestigkeit in kJ/m^2 nach 300 Stunden in Xenotest 450 ([3]; 300 h Xenotest 450): 15±2 kJ/m^2
Schlagbiegefestigkeit in kJ/m^2 nach 500 Stunden in Xenotest 450 ([3]; 500 h Xenotest 450): 13±1 kJ/m^2
Schlagbiegefestigkeit in kJ/m^2 nach 1000 Stunden in Xenotest 450 ([3]; 1000 h Xenotest 450): 11±1 kJ/m^2
Schlagbiegefestigkeit in kJ/m^2 nach 1500 Stunden in Xenotest 450 ([3]; 1500 h Xenotest 450): 11±1 kJ/m^2

CC(C)(c1ccccc1)c1cc(-n2nc3ccccc3n2)c(O)c(C(C)(C)c2ccccc2)c1 [0,3 % UV- Absorber *]
Δ YI nach Belichtungszeit von 250 h ([4]; 250 h UV): -7,0
Δ YI nach Belichtungszeit von 500 h ([4]; 500 h UV): -3,0
Δ YI nach Belichtungszeit von 1000 h ([4]; 1000 h UV): 7,5
Δ YI nach Belichtungszeit von 1250 h ([4]; 1250 h UV): 12,1
Δ YI nach Belichtungszeit von 1500 h ([4]; 1500 h UV): 14,9
